Assay results reported in publication PMC5423974 (European Journal of Clinical Pharmacology, 2017).

Assays:
[1] = system: ABCG2; experiment: Pharmacogenetic association of genetic variants with dose-normalized PK (linear regression, additive model; random effects meta-analysis); assay type: in vivo, human
Experimental: (§1) Five of the six genetic variants analyzed (CYP2C19*2, CYP2C19*3, CYP2C19*17, UGT1A1*6, ABCG2 421C > A) were single nucleotide polymorphisms while one genetic variant was a tandem repeat (UGT1A1*28.) Genotyping of the variants was performed using a Luminex CYP2C19 assay (for CYP2C19*2, CYP2C19*3 and CYP2C19*17), Taqman assays (for UGT1A1*6 and ABCG2 421C > A), and fragment analysis (for UGT1A1*28).
(§2) Each genetic variant was tested for any association with dose-normalized AUC, AUC0–12 or Cmax, using linear regression under an additive genetic model (i.e. phenotypic response per additional copy of the variant allele, where 0, 1 or 2 copies can be present at each locus). For each PK parameter Bonferroni’s correction was used to control for multiple testing when assessing statistical significance. A p value below 0.008 (p < 0.05 with Bonferoni correction for 6 tests) was considered statistically significant. Given the variation in frequency of the variant alleles, analyses were performed stratified by ethnic group (Asian, White, Black) across the studies. A combined estimate across populations was obtained using random effects meta-analysis to allow for between-population heterogeneity.
(§3) Genotype distributions were tested for deviation from Hardy-Weinberg equilibrium using Chi-squared tests. All pharmacogenetic analyses were performed using either StataSE version 14.1 or R statistical software version 3.2.2.

[2] = system: UGT1A1; experiment: as above; assay type: in vivo, human
Experimental: as §1, §2, §3

[3] = system: CYP2C19; experiment: as above; assay type: in vivo, human
Experimental: as §1, §2, §3

[4] = human, in vivo; cited from earlier work
[5] = combined across ethnicities, random effects meta-analysis, N 87
[6] = UGTA1*6, combined analysis, N 42
[7] = UGTA1*28/37, combined across ethnicities, random effects meta-analysis, N 87
[8] = CYP219C*2, combined across ethnicities, random effects meta-analysis, N 87
[9] = CYP219C*3, combined analysis, N 42
[10] = CYP219C*17, combined across ethnicities, random effects meta-analysis, N 87

Structure (SMILES): Cn1cnc2c(F)c(Nc3ccc(Br)cc3Cl)c(C(=O)NOCCO)cc21 [selumetinib, Selumetinib]
- Beta, per-allele change in DN AUC ([1]; Black, N 21): 0.018 log ng.h/mL/mg
- Beta, per-allele change in DN AUC(0–12) ([1]; Black, N 21): -0.020 log ng.h/mL/mg
- Beta, per-allele change in DN Cmax ([1]; Black, N 21): -0.463 log ng/mL/mg
- Beta, per-allele change in DN AUC ([1]; East Asian, N 42): 0.042 log ng.h/mL/mg
- Beta, per-allele change in DN AUC(0–12) ([1]; East Asian, N 42): 0.043 log ng.h/mL/mg
- Beta, per-allele change in DN Cmax ([1]; East Asian, N 42): 0.104 log ng/mL/mg
- Beta, per-allele change in DN AUC ([1]; White, N 24): -0.116 log ng.h/mL/mg
- Beta, per-allele change in DN AUC(0–12) ([1]; White, N 24): -0.093 log ng.h/mL/mg
- Beta, per-allele change in DN Cmax ([1]; White, N 24): -0.119 log ng/mL/mg
- Beta, per-allele effect on DN AUC [1, 5]: 0.028 log ng.h/mL/mg
- Beta, per-allele effect on DN AUC(0–12) [1, 5]: 0.029 log ng.h/mL/mg
- Beta, per-allele effect on DN Cmax [1, 5]: 0.015 log ng/mL/mg
- Beta, per-allele change in DN AUC ([2]; UGTA1*6, East Asian, N 42): 0.061 log ng.h/mL/mg
- Beta, per-allele change in DN Cmax ([2]; UGTA1*6, East Asian, N 42): 0.073 log ng/mL/mg
- Beta, per-allele effect on DN AUC [2, 6]: 0.061 log ng.h/mL/mg
- Beta, per-allele effect on DN Cmax [2, 6]: 0.073 log ng/mL/mg
- Beta, per-allele change in DN AUC ([2]; UGTA1*28/37, Black, N 21): 0.052 log ng.h/mL/mg
- Beta, per-allele change in DN Cmax ([2]; UGTA1*28/37, Black, N 21): 0.048 log ng/mL/mg
- Beta, per-allele change in DN AUC ([2]; UGTA1*28/37, East Asian, N 42): -0.153 log ng.h/mL/mg
- Beta, per-allele change in DN Cmax ([2]; UGTA1*28/37, East Asian, N 42): -0.152 log ng/mL/mg
- Beta, per-allele change in DN AUC ([2]; UGTA1*28/37, White, N 24): -0.033 log ng.h/mL/mg
- Beta, per-allele change in DN Cmax ([2]; UGTA1*28/37, White, N 24): 0.190 log ng/mL/mg
- Beta, per-allele effect on DN AUC [2, 7]: -0.055 log ng.h/mL/mg
- Beta, per-allele effect on DN Cmax [2, 7]: 0.016 log ng/mL/mg
- Beta, per-allele change in DN AUC ([3]; CYP219C*2, Black, N 21): -0.043 log ng.h/mL/mg
- Beta, per-allele change in DN AUC(0–12) ([3]; CYP219C*2, Black, N 21): -0.010 log ng.h/mL/mg
- Beta, per-allele change in DN Cmax ([3]; CYP219C*2, Black, N 21): -0.110 log ng/mL/mg
- Beta, per-allele change in DN AUC ([3]; CYP219C*2, East Asian, N 42): 0.009 log ng.h/mL/mg
- Beta, per-allele change in DN AUC(0–12) ([3]; CYP219C*2, East Asian, N 42): 0.011 log ng.h/mL/mg
- Beta, per-allele change in DN Cmax ([3]; CYP219C*2, East Asian, N 42): -0.064 log ng/mL/mg
- Beta, per-allele change in DN AUC ([3]; CYP219C*2, White, N 24): 0.198 log ng.h/mL/mg
- Beta, per-allele change in DN AUC(0–12) ([3]; CYP219C*2, White, N 24): 0.242 log ng.h/mL/mg
- Beta, per-allele change in DN Cmax ([3]; CYP219C*2, White, N 24): 0.167 log ng/mL/mg
- Beta, per-allele effect on DN AUC [3, 8]: 0.042 log ng.h/mL/mg
- Beta, per-allele effect on DN AUC(0–12) [3, 8]: 0.069 log ng.h/mL/mg
- Beta, per-allele effect on DN Cmax [3, 8]: -0.010 log ng/mL/mg
- Beta, per-allele change in DN AUC ([3]; CYP219C*3, East Asian, N 42): 0.063 log ng.h/mL/mg
- Beta, per-allele change in DN AUC(0–12) ([3]; CYP219C*3, East Asian, N 42): 0.096 log ng.h/mL/mg
- Beta, per-allele change in DN Cmax ([3]; CYP219C*3, East Asian, N 42): 0.122 log ng/mL/mg
- Beta, per-allele effect on DN AUC [3, 9]: 0.063 log ng.h/mL/mg
- Beta, per-allele effect on DN AUC(0–12) [3, 9]: 0.096 log ng.h/mL/mg
- Beta, per-allele effect on DN Cmax [3, 9]: 0.122 log ng/mL/mg
- Beta, per-allele change in DN AUC ([3]; CYP219C*17, Black, N 21): 0.090 log ng.h/mL/mg
- Beta, per-allele change in DN AUC(0–12) ([3]; CYP219C*17, Black, N 21): 0.089 log ng.h/mL/mg
- Beta, per-allele change in DN Cmax ([3]; CYP219C*17, Black, N 21): 0.086 log ng/mL/mg
- Beta, per-allele change in DN AUC ([3]; CYP219C*17, East Asian, N 42): -0.104 log ng.h/mL/mg
- Beta, per-allele change in DN AUC(0–12) ([3]; CYP219C*17, East Asian, N 42): -0.139 log ng.h/mL/mg
- Beta, per-allele change in DN Cmax ([3]; CYP219C*17, East Asian, N 42): -0.142 log ng/mL/mg
- Beta, per-allele change in DN AUC ([3]; CYP219C*17, White, N 24): -0.116 log ng.h/mL/mg
- Beta, per-allele change in DN AUC(0–12) ([3]; CYP219C*17, White, N 24): -0.127 log ng.h/mL/mg
- Beta, per-allele change in DN Cmax ([3]; CYP219C*17, White, N 24): 0.041 log ng/mL/mg
- Beta, per-allele effect on DN AUC [3, 10]: 0.004 log ng.h/mL/mg
- Beta, per-allele effect on DN AUC(0–12) [3, 10]: -0.014 log ng.h/mL/mg
- Beta, per-allele effect on DN Cmax [3, 10]: 0.037 log ng/mL/mg
- serious AEs [4]: no serious AEs
